Assay results as given in patent US20090087845A1, “Genetic Markers Of True Low Birth Weight” (priority 2005, published 2009).
Several values for one entry are separate records, joined by “and”; a condition that tells them apart may be missing. Equal entries are not always repeated.

System: placental gene expression
Experiment: Placental gene expression (Affymetrix Rat Genome Chip 230.2) after SSRI (fluoxetine) exposure throughout gestation
Type: in vivo
Conditions: SSRI exposure during gestation
Procedure: Gene expression data from pregnant rats under different forms of dietary restriction was gathered. […] (N=8) • Group 2 (CR50): Rats Given 50% of their Normal Daily Intake of Food. (N=5) • Group 3 (CR70): Rats Given 70% of their Normal Daily Intake of Food. […] (N=6) Placentas from the rats of each Group were harvested on Day 21 of gestation. RNA was extracted and gene expression was measured based on hybridization of RNA to Affymetrix Rat Genome Chips™ (230.2) (Affymetrix, Santa Clara, Calif.).
In order to determine whether placental gene expression profiling can be used to identify other prenatal exposures such as toxicants and drugs, a group of rats with drug exposure was monitored as described above. […] As with control, CR50, CR70, and HF groups, placentas from the mothers were sampled after 21 days of gestation and gene expression monitored utilizing an Affymetrix Rat Genome Chip.

## CNCCC(Oc1ccc(C(F)(F)F)cc1)c1ccccc1 (stereo not shown) [fluoxetine, Fluoxetine]
  Probeset 1367856_at expression: 9.227 and 9.529 and 9.365 and 9.385 and 9.39 and 9.762
  Probeset 1367877_at expression: 10.9 and 11 and 11.21 and 11.25 and 10.7225 and 10.35
  Probeset 1368083_at expression: 8.132 and 7.967 and 8.206 and 8.272 and 8.391 and 8.145
  Probeset 1368824_at expression: 8.826 and 8.855 and 9.531 and 9.13 and 8.806 and 9.976
  Probeset 1369754_a_at expression: 8.0392 and 8.245 and 7.92 and 7.959 and 8 and 8.033
  Probeset 1369775_at expression: 8.114 and 8.469 and 8.777 and 8.329 and 7.897 and 9.185
  Probeset 1370293_at expression: 5.003 and 5.146 and 4.947 and 4.866 and 4.888 and 5.155
  Probeset 1370317_at expression: 8.087 and 8.102 and 8.255 and 8.308 and 8.15 and 8.491
  Probeset 1370521_at expression: 8.446 and 8.335 and 8.321 and 8.443 and 8.486 and 8.352
  Probeset 1370682_at expression: 5.234 and 5.326 and 5.095 and 5.171 and 5.242 and 5.482
  Probeset 1370766_at expression: 4.942 and 4.938 and 5.166 and 5.489 and 5.322 and 4.712
  Probeset 1370918_a_at expression: 11.31 and 11.2792 and 11.25 and 11.37 and 11.45 and 11.49
  Probeset 1370983_at expression: 5.843
  Probeset 1371435_at expression: 11.01 and 10.91 and 11.23 and 11.08 and 10.99 and 11.27
  Probeset 1372141_at expression: 9.139 and 9.134 and 9.292 and 9.347 and 9.239 and 9.295
  Probeset 1373319_at expression: 9.055 and 9.237 and 9.183 and 9.332 and 9.182 and 9.352
  Probeset 1373396_at expression: 9.155 and 8.864 and 9.203 and 9.102 and 8.933 and 8.366
  Probeset 1373572_at expression: 7.868 and 7.822 and 7.63 and 7.991 and 8.104 and 8.161
  Probeset 1373647_at expression: 8.371 and 8.23 and 8.672 and 8.447 and 8.268 and 8.235
  Probeset 1373702_at expression: 8.332 and 8.305 and 8.162 and 8.514 and 8.322 and 7.814
  Probeset 1373804_at expression: 6.825 (2×) and 6.702 and 7.208 and 7.238 and 7.527
  Probeset 1374112_at expression: 6.448 and 6.479 and 6.686 and 6.529 and 6.5 and 6.601
  Probeset 1374739_at expression: 8.91 and 8.84 and 9.07 and 9.074 and 8.858 and 8.669
  Probeset 1375178_at expression: 5.861 and 5.694 and 5.836 and 5.574 and 5.873 and 5.942
  Probeset 1375407_at expression: 4.147 and 4.198 and 4.162 and 4.179 and 4.18 and 4.21
  Probeset 1376294_at expression: 8.241 and 8.136 and 8.122 and 8.206 and 8.031 and 7.939
  Probeset 1376622_at expression: 9.179 and 9.106 and 9.158 and 9.007 and 8.828 and 8.85
  Probeset 1376661_at expression: 9.243 and 8.93 and 9.166 and 9.213 and 9.04 and 8.674
  Probeset 1377210_at expression: 5.248 and 4.863 and 5.701 and 5.485 and 5.015 and 5.172
  Probeset 1377365_at expression: 4.943 and 5.014 and 4.818 and 5.177 and 5.084 and 4.987
  Probeset 1377621_at expression: 9.058 and 9.148 and 9.272 and 8.936 and 8.844 and 9.114
  Probeset 1377746_at expression: 6.748 and 6.563 and 6.855 and 6.829 and 6.772 and 6.746
  Probeset 1378200_at expression: 3.497 and 3.656 and 3.453 and 3.611 and 3.537 and 3.653
  Probeset 1378318_at expression: 7.345 and 7.18 and 7.153 and 7.373 and 7.289 and 7.671
  Probeset 1378906_at expression: 4.061 and 4.197 and 4.196 and 4.263 and 4.048 and 4.099
  Probeset 1378992_at expression: 3.715 and 3.63 and 3.611 and 3.744 and 3.567 and 3.655
  Probeset 1379691_at expression: 5.195 and 5.15 and 5.65 and 5.355 and 5.021 and 5.425
  Probeset 1379822_at expression: 4.426 and 4.487 and 4.337 and 4.483 and 4.602 and 4.654
  Probeset 1379827_at expression: 7.363 and 6.823 and 7.052 and 7.077 and 7.08 and 7.626
  Probeset 1379963_at expression: 6.946 and 6.646 and 6.73 and 6.72 and 6.71 and 6.95
  Probeset 1380175_at expression: 5.161 (2×) and 4.962 and 5.291 and 5.16 and 5.03
  Probeset 1380454_at expression: 6.241 and 5.984 and 6.009 and 5.948 and 5.974 and 6.055
  Probeset 1380887_at expression: 4.924
  Probeset 1381074_at expression: 4.46 and 4.412
  Probeset 1381130_at expression: 3.907 and 4.131 and 4.062 and 4.007 and 3.997 and 4.159
  Probeset 1381286_at expression: 5.782 and 5.606 and 5.685 and 5.499 and 5.475 and 5.605
  Probeset 1381456_at expression: 5.51 and 5.294 and 5.392 and 5.362 and 5.479 and 5.538
  Probeset 1381492_at expression: 3.395 and 3.359 and 3.315 and 3.411 and 3.371 and 3.465
  Probeset 1381950_at expression: 3.272 and 3.248 and 3.336 and 3.304 and 3.319 and 3.328
  Probeset 1382156_at expression: 4.657 and 4.812 and 4.826 and 4.712 and 4.874 and 4.952
  Probeset 1382513_at expression: 6.674 and 6.665 and 6.481 and 6.607 and 6.737 and 6.659
  Probeset 1382670_at expression: 8.608 and 8.307 and 8.399 and 8.688 and 8.346 and 8.2197
  Probeset 1383054_at expression: 8.808 and 9.017 and 9.07 and 8.991 and 8.711 and 9.326
  Probeset 1383300_at expression: 8.006 and 8.007 and 8.362 and 8.2749 and 8.022 and 8.359
  Probeset 1383309_at expression: 8.849 and 8.69 and 8.969 and 8.891 and 8.934 and 8.618
  Probeset 1383329_at expression: 5.895 and 5.614 and 5.92 and 5.669 and 5.593 and 5.826
  Probeset 1383443_at expression: 5.684 and 5.567 and 5.755 and 5.468 and 5.752 and 5.677
  Probeset 1383599_at expression: 8.081 and 7.626 and 7.843 and 7.829 and 8.127 and 9.642
  Probeset 1383670_at expression: 6.71 and 6.607 and 6.621 and 6.709 and 6.712 and 7.383
  Probeset 1384367_at expression: 5.722 and 5.628 and 5.604 and 6.025 and 5.735 and 5.669
  Probeset 1384528_at expression: 6.295 and 6.64 and 6.851 and 6.656 and 6.5 and 7.042
  Probeset 1384573_at expression: 8.901 and 8.97 and 9.056 and 9.081 and 8.766 and 9.188
  Probeset 1384849_at expression: 4.389 and 4.321 and 4.282 and 4.323 and 4.508 and 4.489
  Probeset 1385074_at expression: 5.671 and 5.563 and 5.768 and 5.526 and 5.195 and 5.636
  Probeset 1385113_at expression: 7.347 and 7.428 and 7.301 and 7.161 and 7.417 and 7.088
  Probeset 1385137_at expression: 6.487 and 6.691 and 6.525 and 6.507 and 6.657 and 6.515
  Probeset 1385290_at expression: 5.912 and 5.666 and 5.934 and 5.765 and 5.855 and 6.05
  Probeset 1385386_at expression: 3.88 and 3.887 and 3.724 and 3.939 and 3.964 and 3.997
  Probeset 1385391_at expression: 3.906
  Probeset 1385676_at expression: 7.767 and 7.784 and 7.6 and 7.923 and 7.825 and 7.957
  Probeset 1385790_at expression: 8.874 and 8.703 and 8.936 and 8.711 and 8.797 and 8.832
  Probeset 1385967_at expression: 7.8281 and 7.604 and 7.783 and 7.853 and 7.739 and 7.587
  Probeset 1386125_at expression: 6.722 and 6.815 and 6.394 and 6.647 and 6.915 and 6.555
  Probeset 1387136_at expression: 6.858 and 6.879 and 6.716 and 6.836 and 6.917 and 6.91
  Probeset 1387693_a_at expression: 6.346 and 5.564 and 5.898 and 6.298 and 6.19 and 6.092
  Probeset 1387694_at expression: 4.568 (2×) and 4.709 and 4.717 and 4.669 and 4.592
  Probeset 1387822_at expression: 6.542 and 6.446 and 6.117 and 6.626 and 6.634 and 6.309
  Probeset 1387836_at expression: 6.084 and 6.195 and 5.76 and 6.333 and 6.223 and 6.427
  Probeset 1387914_at expression: 7.114 and 7.095 and 6.97 and 7.203 and 7.171 and 6.743
  Probeset 1388091_at expression: 4.883 and 4.896 and 4.86 and 4.66 and 4.763 and 5.101
  Probeset 1388131_at expression: 5.883 and 5.853 (2×) and 5.899 and 5.7 and 5.653
  Probeset 1388363_at expression: 8.334 and 8.137 and 8.387 and 8.484 and 8.155 and 8.23
  Probeset 1388396_at expression: 8.583 and 8.468 and 8.633 and 8.876 and 8.642 and 8.158
  Probeset 1388669_at expression: 7.593 and 7.653 and 7.716 and 7.739 and 7.557 and 7.506
  Probeset 1389095_at expression: 4.796 and 4.404 and 4.732 and 4.907 and 5.027 and 4.473
  Probeset 1389213_at expression: 8.131 and 8.028 and 7.745 and 7.914 and 8.246 and 8.135
  Probeset 1389599_at expression: 7.15 and 6.872 and 6.834 and 7.063 and 7.294 and 6.817
  Probeset 1389938_at expression: 3.471 and 3.408 and 3.488 and 3.5 and 3.516 and 3.49
  Probeset 1390406_at expression: 10.34 and 10.3557 and 10.5 and 10.19 and 10.46 and 10.31
  Probeset 1390477_at expression: 5.455 and 5.297 and 5.408 and 5.153 and 5.575 and 5.333
  Probeset 1390592_at expression: 7.922 and 8.042 and 8.388 and 8.1 and 7.908 and 8.783
  Probeset 1390603_at expression: 7.171 and 7.008 and 7.6 and 6.976 and 7.243 and 7.286
  Probeset 1390649_at expression: 7.938 and 7.688 and 7.673 and 7.791 and 7.858 and 7.491
  Probeset 1390892_at expression: 5.596 and 5.604 and 5.507 and 5.408 and 5.571 and 5.5082
  Probeset 1391078_at expression: 8.106 and 8.271 and 8.74 and 8.604 and 8.221 and 9.079
  Probeset 1391283_at expression: 5.834 and 5.874 and 5.96 and 5.702 and 5.598 and 5.898
  Probeset 1391376_at expression: 7.65 and 7.982 and 7.683 and 7.518 and 7.491 and 7.602
